Reference: patent publication EP1350541A1, “Use of dehydroepiandrosterone and an estradiol derivative for preparing a medicament for treating postmenopausal climacteric disorders” (priority 2002, dated 2003)
Where two headings read alike, the source gives them in different places.

Experiments:
[1] = system: induzierbaren Stickstoffmonoxid-Oxidase (iNOS); experiment: Inhibition of NO release (iNOS) in the brain of ovariectomised rats; format: in vivo, Ratten; conditions: female ovariectomised rats; compared with 17β-Estradiol; Abbildung 2; significant vs OVX control (p<0.01)
Excerpt: Eine der typischen Estrogenwirkungen im Gehirn ist die Hemmung der induzierbaren […] (iNOS). […] Die Kontrollgruppe sind ovarektomierte Tiere (OVX), die nur mit dem Lösungsmittel behandelt worden sind. (* Bedeutet statistisch signifikant gegenüber der Kontrollgruppe (p<0.01))

[2] = system: Oxytocin (Nachweis der OT mRNA); experiment: Induction of the estrogen-dependent oxytocin gene (OT mRNA) in the brain of ovariectomised rats; format: in vivo, Ratten; conditions: brain of female ovariectomised rats; Abbildung 3
Excerpt: (§1) In Abbildung 3 werden zwei weitere Beispiele für typische Estrogenwirkungen im Gehirn von weiblichen, ovarektomierten Ratten dargestellt. […] (* Bedeutet statistisch signifikant gegenüber der Kontrollgruppe (p<0.01))

[3] = system: Corticotropin-Releaseinghormon (Nachweis der CRH mRNA); experiment: Induction of the estrogen-dependent CRH gene (CRH mRNA) in the brain of ovariectomised rats; format: in vivo, Ratten; conditions: brain of female ovariectomised rats; Abbildung 3
Excerpt: as §1

Uterus = experiment: Estrogenic effect on the uterus (uterine mass) of ovariectomised rats; format: in vivo, Ratten; conditions: female ovariectomised rats, in contrast to 17β-Estradiol; for estrogene Wirkung auf den Uterus (Zunahme der Uterusmasse): Abbildung 3
bcl-2 = experiment: Expression of the antiapoptotic gene bcl-2 in the hippocampus of ovariectomised rats; format: in vivo, Ratten; conditions: female ovariectomised rats; vs OVX control (p<0.01); Abbildung 4
[4] = Clinical study in healthy women: serum testosterone after oral DHEA, with dexamethasone suppression; format: in vivo, Frauen; conditions: single dose of dexamethasone, 100 mg DHEA oral, Abbildung 5
Excerpt: In Abbildung 5 werden daher Ergebnisse einer klinischen Studie mit gesunden Frauen dargestellt. Zur kurzzeitigen Unterdrückung der körpereigenen Steroidproduktion erhielten die Probandinnen einmalig Dexamethason. […] Damit ist der Nachweis geführt, daß DHEA bei Frauen nach oraler Aufnahme im Körper zu dem sehr wirksamen Androgen Testosteron umgewandelt wird, d.h. DHEA ist bei Frauen ein Prodrug für Testosteron.

[5] = 100 mg/Tag oral; Arlt et al., New Engl J Med 1999; cited from earlier work
[6] = Stabilisation of the unstable steroids in drug formulations by stabilisers; format: physicochemical
Excerpt: Eine hinreichende Haltbarkeit der an sich sehr instabilen Steroide in Arzneimittelformulierungen wird insbesondere erreicht, wenn ein Stabilisator vorliegt. […] In einer bevorzugten Ausführungsform des erfindungsgemäßen Arzneimittels wird deshalb das Steroid mit Ascorbinsäure stabilisiert. […] Die Konzentration des Stabilisators Ascorbinsäure ist vom Gehalt des Steroids abhängig. Je nach dessen Gehalt werden bei Weichgelatinekapseln 0,1 % bis 1 % Ascorbinsäure, bezogen auf die Füllmasse, eingesetzt.

| SMILES | Induktion der estrogenabhängigen Gene für Oxytocin (OT mRNA) [2] | Induktion der estrogenabhängigen Gene für Corticotropin-Releaseinghormon (CRH mRNA) [3] | Expression des antiapoptotischen Gens bcl-2 im Hippocampus (bcl-2) | stabilisierende Wirkung (Haltbarkeit der Steroide in Arzneimittelformulierungen) [6] | further results |
| --- | --- | --- | --- | --- | --- |
| C[C@]12CCC3=C(CCc4cc(O)ccc43)[C@@]13C[C@H]3C[C@H]2O [J 861, 14α, 15α-Methylenestra-1,3,5(10),8-tetraen-3,17α-diol] | gelingt | gelingt | signifikant erhöht |  | Hemmung der Freisetzung von NO [1]: genauso stark wie bei dem wichtigsten körpereigenen Estrogen, dem 17β-Estradiol; estrogene Wirkung auf den Uterus (Zunahme der Uterusmasse) (Uterus): nicht nachweisbar; Wirkung auf den Uterus (Uterus; Abbildung 4): keinerlei Wirkung auf den Uterus |
| C[C@]12CC[C@H](O)CC1=CC[C@@H]1[C@@H]2CC[C@]2(C)C(=O)CC[C@@H]12 [DHEA, Dehydroepiandrosteron] |  |  |  |  | Serum-Testosteronkonzentrationen [4]: auf das Niveau der unbehandelten Kontrollen hebt; unerwünschte Virilisierungserscheinungen [5]: keine unerwünschten Virilisierungserscheinungen |
| C[C@]12CC[C@@H]3c4ccc(O)cc4CC[C@H]3[C@@H]1CC[C@H]2O [17α-Estradiol] |  |  | im Gegensatz |  |  |
| O=C1O[C@H]([C@@H](O)CO)C(O)=C1O [Ascorbinsäure] |  |  |  |  | stabilisierende Wirkung (Haltbarkeit der Steroide in Arzneimittelformulierungen) ([6]; stabiliser added to the steroid formulation): besonders wirksam |
| CCCCCCCCCCCCCCCC(=O)OC[C@H](O)[C@H]1OC(=O)C(O)=C1O [Ascorbylpalmitat] |  |  |  | deutlich weniger effektiv |  |
| C[C@]12CC[C@@H]3c4ccc(O)cc4CC[C@H]3[C@@H]1CC[C@@H]2O [17β-Estradiol, reference compound] | gelingt | gelingt | signifikant erhöht |  |  |
| COc1ccc(O)c(C(C)(C)C)c1 [Butylhydroxyanisol] |  |  |  | deutlich weniger effektiv |  |
| Cc1cc(C(C)(C)C)c(O)c(C(C)(C)C)c1 [Butylhydroxytoluol] |  |  |  | deutlich weniger effektiv |  |
| C[C@]12CCC3=C(CCc4cc(O)ccc43)[C@@H]1CC[C@H]2O [J 811, Estra-1,3,5(10),8-tetraen-3,17α-diol] | gelingt | gelingt |  |  | Hemmung der Freisetzung von NO [1]: genauso stark wie bei dem wichtigsten körpereigenen Estrogen, dem 17β-Estradiol; estrogene Wirkung auf den Uterus (Zunahme der Uterusmasse) (Uterus): nicht nachweisbar |
